Laboratory results taken from US20240261315A1 (Omikron Italia S.r.l., priority 2021, published 2024).

Legend:
[1] = system: patients affected by open-angle glaucoma; test: Clinical observation in open-angle glaucoma patients: intraocular pressure (Goldmann tonometry); format: in vivo, human; conditions: after 6 months of treatment, in addition to hypotensive therapy, 3 patients
Protocol: 12 randomized patients were included in 4 groups: • CIT. GROUP-3 patients treated with citicoline in oral solution 10 ml/die corresponding to 500 mg/die of citicoline, in addition to the hypotensive therapy; • NIC. […] The patients were treated and followed for 6 months. At baseline and after 6 months of treatment complete eye examination including visual acuity, control of the intraocular pressure (IOP) with Goldmann tonometry (GAT); visual field testing, electro-functional and morphological examination were performed.

synaptophysin = test: Synaptophysin quantification by immunofluorescence in retina of db/db mice; format: in vivo; conditions: vs placebo and healthy control
From the text: (§1) The db/db mice have a mutation in the leptin receptor gene and they are an animal model of retinal neurodegeneration. Such model is useful to mime the pathophysiological events which are found in neurodegenerative pathologies such as glaucoma.
20 db/db […] (BKS.Cg-+Leprdb/+Leprdb/OlaHsd, males, 10 weeks) were randomized in 5 groups and treated for 15 days by oral route with oral solutions based on: • 1. Citicoline 0.5% (Cit.) in 10% lactose solution administered with nasogastric tube (SNG); • 2. […] 10% lactose solution (Placebo) administered with SNG; • 5. Healthy, non-diabetic control (Control).
(v) The quantification of caspase-3 and of synaptophysin was performed by means of immunofluorescence. The sections were fixed in methanol (20° C.) for 1 min and washed with buffered saline solution (PBS) 0.01 M at pH 7.4. Then, the sections were incubated in 10% solution NGS, 0.1% Triton X-100, PBS for 1 hour at room environment and subsequently incubated with a specific primary antibody (respectively anti-caspase-3 and anti-synaptophysin monoclonal antibody of rabbit) one night at 4° C. […] Five fields (three corresponding to the central retina and two to the peripheral one) were analysed. The fluorescence intensity of images was quantified with software ImageJ.

[2] = system: glial fibrillary acidic protein GFAP; test: Glial activation, GFAP immunohistochemistry score in db/db mice; format: in vivo
From the text: as §1
[…] Citicoline 0.5% (Cit.) in 10% lactose solution administered with nasogastric tube (SNG); • 2. […] 10% lactose solution (Placebo) administered with SNG; • 5. Healthy, non-diabetic control (Control).
Through immunohistochemical assays, neurodegeneration histological markers were researched (glial activation and apoptosis):
(iii) The glial activation was evaluated by means of confocal laser scanning microscopy by using antibodies directed to the glial fibrillary acidic protein GFAP (anti-GFAP of rabbit). To evaluate the level of glial activation a scoring system (from 1 to 5) was used based upon the extension of GFAP (glial fibrillary acidic protein) colouring.
The sections were fixed in methanol (−20° C.) for 2 minutes, followed by three washing with saline phosphate buffer PBS (5 minutes each one). The sections were treated with Tris Saline Buffer TBS-Triton X-100 (0.025%) and incubated in a 1% solution of bovine albumin serum BSA and 10% goat serum in PBS for 2 hours at room temperature. The sections were then incubated with anti-GFAP of rabbit overnight at 4° C. in humid atmosphere. After three washing in PBS, 5 minutes each one, the sections were incubated with the secondary antibody Alexa AF488 goat-anti-rabbit (dilution 1:200 prepared in blocking solution). The sections were washed in PBS, coloured with Hoestch and assembled with means Flourescence Mounting Medium with a cover glass. Once the mounting support has dried up, comparative digital images of the samples were recorded with a confocal laser scanning microscope Fluoview FV 1000 Olympus (Olympus, Shinjuku, Tokyo, Japan) by using identical brightness and contrast settings.

[3] = system: layer of the RNFL nerve fibres; test: Clinical observation: RNFL thickness by SD-OCT; format: in vivo, human; conditions: after 6 months of treatment, in addition to hypotensive therapy, 3 patients
Protocol: 12 randomized patients were included in 4 groups: • CIT. GROUP-3 patients treated with citicoline in oral solution 10 ml/die corresponding to 500 mg/die of citicoline, in addition to the hypotensive therapy; • NIC. […] The patients were treated and followed for 6 months. At baseline and after 6 months of treatment complete eye examination including visual acuity, control of the intraocular pressure (IOP) with Goldmann tonometry (GAT); visual field testing, electro-functional and morphological examination were performed. (3) The evaluation of the thickness of the layer of the RNFL nerve fibres was performed with spectral-domain optical coherence tomography SD-OCT (RTVue Model-RT100 version 3.5; Optovue Inc, Fremont, CA, USA). Such analysis allows a tomographic survey of retina capable of highlighting, through high-resolution cross sections, structural details of the cellular layers and of their plexuses and allows a qualitative and quantitative analysis of the retinal alterations. The patients were positioned in front of the instrument and invited to observe a luminous target: the instrument, once the ocular structure to be analysed is focused, performs the scanning.

SMILES	IOP [1]	levels of synaptophysin (synaptophysin)	GFAP score 1, share of mice [2]	GFAP score 2, share of mice [2]	GFAP score 3, share of mice [2]	GFAP score 4, share of mice [2]	GFAP score 5, share of mice [2]	RNFL-TO [3]
C[N+](C)(C)CCOP(=O)([O-])OP(=O)(O)OC[C@H]1O[C@@H](n2ccc(N)nc2=O)C(O)C1O (stereo partly shown) [Citicoline, citidin-5′-difosfocholine]	13.8 (±1.8)	statistically significant increase in the levels of synaptophysin	71%	22%	7%	0%	0%	65.0 (±12.0)
NC(=O)c1cccnc1 [Nicotinamide]	14.0 (±2.3)^	statistically significant increase in the levels of synaptophysin	72%	18%	10%	0%	0%	61.1 (±12.5)
